“Also recorded” adds a separate entry of the source.
Assays:
[1] = molecular target: γ-secretase; assay: IC50 of γ-secretase inhibitors, assay not stated
Source text: DAPT, DBZ or BZ are both effective in inducing the formation of a post-mitotic cell from an adenoma and/or adenocarcinoma cell and these compounds thus have a similar effect in a method according to the invention.

[2] = tested on: adenomas of APC^min mice; assay: Oral DAPT treatment of APC^min mice, histology of intestinal adenomas; format: in vivo, mouse; settings: DAPT 100 mg/kg orally once daily
Procedure: The intestinal tract was dissected as a whole and flushed gently with cold PBS to remove any fecal content followed by a flush with Formalin. The small intestine was rolled up into a compact circle and fixed in Formalin at room temperature for 16 hours. The tissues were sectioned (2 to 6 μm). Following dewaxing and hydration, sections were pretreated with peroxidase blocking buffer (120 mM Na2HPO4, 43 mM citric acid, 30 mM NaN3, 0.2% H2O2; pH 5.8) for 15 minutes at room temperature. Antigen retrieval was performed by boiling samples in Na-citrate buffer (10 mM, pH 6.0). After 20 minutes, the boiling pan was allowed to slowly cool down to room temperature. Incubation of antibodies was performed in BSA in PBS overnight at 4° C. and at room temperature for one hour for Lysozyme, Ki67. In all cases, the Envision^+ kit (DAKO) was used as a secondary reagent. The incubation time was 30 minutes. Stainings were developed using DAB. Slides were then counterstained with hematoxylin and mounted. The probes used for in situ hybridization are as described (Schroder et al. 2002). Following dewaxing and hydration, tissues were incubated for five minutes in Alcian Blue (1% in 0.5% acetic acid). Subsequently washed in water, one minute incubated in Neutral Red. Quickly dehydrated, washed in Xylene and mounted with Pertex. The eight-week-old APC^min mice were treated with two different, orally deliverable γ-secretase inhibitors (DAPT: 100 mg/kg in corn oil) for 2.5, 6.5 or 15 days, after which their intestines were isolated and examined histologically. We then asked whether Notch pathway activity was essential for the maintenance of the undifferentiated, proliferative phenotype of adenoma cells. We elected to inhibit the Notch pathway pharmacologically through the use of the γ-secretase inhibitor DAPT. We then initiated treatment of fifteen-week-old APC^min mice that at this age carry 30 to 60 macroscopically detectable adenomas or polyps in the small intestine and one to three adenomas in the colon. The mice were treated with DAPT for up to 15 days, after which their intestines were examined histologically. Based on a pilot experiment and published treatment regimens, the APC^min mice were orally dosed once daily with DAPT at 100 mg/kg in maize oil.

SMILES: CC(NC(=O)Cc1cc(F)cc(F)c1)C(=O)NC(C(=O)OC(C)(C)C)c1ccccc1 [DAPT, N—[N-(3,5-difluorophenylacetyl)-L-alanyl]-S-phenylglycine t-butyl ester]
- IC50 [1]: 10 nM
- effects in adenomas ([2]; day 2.5 or day 6.5 of treatment): No consistent effects
- Alcian Blue-positive goblet cells in adenomas ([2]; day 15): increase in goblet cells; also recorded: Large foci of Alcian Blue-positive goblet cells had appeared
- proliferation in adjacent, normal crypts ([2]; day 15): unaffected
- numbers of proliferating, Ki67-positive cells in adenomas ([2]; day 15, colon and small intestinal adenomas): strongly diminished; also recorded: dramatically decreased; also recorded: halted
